Data taken from patent US20260108442A1, “COMPOUND FOR USE IN PROTECTING SKIN” (TDELTAS LIMITED, priority 2013, published 2026).

Experiments:
hands of the user (skin) = assay: Neat topical application to dry hands, visual inspection; type: in vivo; conditions: used neat, massaged into dry hands, inspected after 30 minutes
Excerpt: D-betahydroxybutyrate butanediol monoester was used neat in this experiment. The hands of the user were visually inspected prior to application of the D-betahydroxybutyrate butanediol monoester. […] D-betahydroxybutyrate butanediol monoester was applied to the hands and massaged in to the skin thoroughly.

[1] = tested on: Primary human dermal fibroblasts (HDF); assay: Live and dead assay (Calcein AM / EthD-III) of human dermal fibroblast growth; type: cell-based; conditions: 4 mM in basal medium, after 10 days incubation, FIG. 1
Procedure: Primary human dermal fibroblasts (HDF), with a seeding capacity of 2,500 cells/cm^2, […] (HF) basal medium (TCS Cellworks) or basal medium containing 4 mM of the ketone ester, deltaG. The basal medium was changed daily. Cell viability was determined using a live and dead assay kit, with two colour fluorescence staining of live and dead cells using the probes, Calcein AM and EthD-III.

[2] = tested on: Human dermal fibroblast cells; assay: Cell survival after UVB irradiation, Trypan blue exclusion; type: cell-based; conditions: viable cells at 48 hours after irradiation, FIG. 2
Procedure: Human dermal fibroblast cells were cultured in basal medium in 6-well plates at 50,000 cells per well. The cells were incubated in medium alone or with added 4 mM R-3-hydroxybutyl-(R)-3-hydroxybutyrate. After reaching 80-90% confluence, cells were washed with phosphate-buffered saline and the medium was replaced with a thin layer of Hanks buffer, (a balanced salt solution designed to use with cells in non-CO2 atmospheric conditions). Cells were irradiated at doses of 25, 50, 100, 150, 300 and 600 mJ/cm^2 using a portable UVB source (302 nm) with a fluence rate of 0.9 mW/cm^2 at cell level. UV irradiation was performed in a fume hood to maintain sterility. After irradiation, cells were washed and incubated in medium alone or with added 4 mM R-3-hydroxybutyl-(R)-3-hydroxybutyrate (as they had been before irradiation). Another group of irradiated cells, which had initially been grown in basal medium without deltaG, was incubated with added 4 mM R-3-hydroxybutyl-(R)-3-hydroxybutyrate. Cell survival was determined by counting viable cells using Trypan blue exclusion at 48 hours after irradiation.

For `C[C@@H](O)CCOC(=O)C[C@@H](C)O` [R-3-hydroxybutyl-(R)-3-hydroxybutyrate], the “visual inspection of hands (dryness, wrinkling, feel)” value (hands of the user (skin)) was “visually noticeable improvement in properties including less dryness, less wrinkling and an improved feel”, the dead cells ([1]; compared with control) was “fewer dead cells” and the live cells ([1]; vs. 75% in control, P<0.05) was 89%. The “protection from UVB radiation (cell survival)” value ([2]; 4 mM both before and after radiation exposure, compared with after radiation only) was “conferred no further benefit” and the “protection from UVB radiation (cell survival)” value ([2]; 4 mM given to the cells after radiation, UVB 302 nm, doses between 150 and 600 mJ/cm^2, p<0.05) was “protected human dermal fibroblasts from UVB radiation”.
